Results from patent publication US20030139349A1, “Benzophenone alpha-d-glycopyranosides, preparation and therapeutic use” (priority 2002, published 2003).

Each molecule was assayed on female mice of the C57BL/6J strain (assay: Lowering of serum cholesterol level in mice subjected to a fatty diet (single dose)). Settings: total serum cholesterol; female C57BL/6J mice on fatty diet (1.25% cholesterol, 0.5% cholic acid); single dose 100 mg/kg by tubage, suspension in 3% aqueous gum.
Format: in vivo
Description: The antiatheromatous activity of the compounds according to the invention was evaluated as a function of their ability to lower the serum cholesterol level in mice subjected to a fatty diet. […] This correlation affords a test which is more rapid than direct experiments on the atheromatous plaque, which require a lengthy treatment of the animals and an expensive histological study of the walls of the aortic arch.
The test used consists in administering a single dose of the compound to female mice of the C57BL/6J strain. The protocol is as follows: On the first day (D0), the mice are fasted from 9 am to 5 pm, a blood sample being taken at 2 pm. At 5 pm, a given amount of food (a fatty diet comprising 1.25% of cholesterol and 0.5% of cholic acid) is distributed. On the second day (D1), the food leftovers are weighed at 9 am and the mice are fasted from 9 am to 2 pm. A blood sample is taken at 2 pm. For the treated groups of mice, the compound is administered at 9 am on the second day (D1) by tubage in the form of a suspension in a 3% aqueous solution of gum. The control groups receive only the aqueous gum.
The compounds were tested at a dose of 100 mg/kg. The total serum cholesterol is assayed and the results are expressed as the percentage inhibition of the increase in cholesterolemia compared with the control group.

Going from `CC(=O)OC[C@H]1O[C@H](Oc2ccc(C(=O)c3ccc(C#N)cc3)cc2)[C@H](OC(C)=O)[C@@H](OC(C)=O)[C@@H]1OC(C)=O` [Example 1, [4-(4-Cyanobenzoyl)phenyl]2,3,4,6-tetra-O-acetyl-α-D-glucopyranoside] to `CC(=O)OC[C@H]1O[C@H](Oc2ccc(C(=O)c3ccc(C#N)cc3)cc2)[C@@H](OC(C)=O)[C@@H](OC(C)=O)[C@@H]1OC(C)=O` [Example 3, [4-(4-Cyanobenzoyl)phenyl]2,3,4,6-tetra-O-acetyl-α-D-mannopyranoside], the “Activity (%): percentage inhibition of the increase in cholesterolemia compared with the control group” value rises from −27% to −10%.

First: N#Cc1ccc(C(=O)c2ccc(O[C@H]3O[C@H](CO)[C@@H](O)[C@H](O)[C@H]3O)cc2)cc1 [Example 2, [4-(4-Cyanobenzoyl)phenyl]α-D-glucopyranoside]
Second: N#Cc1ccc(C(=O)c2ccc(O[C@H]3O[C@H](CO)[C@@H](O)[C@H](O)[C@@H]3O)cc2)cc1 [Example 4, [4-(4-Cyanobenzoyl)phenyl]α-D-mannopyranoside]
The “Activity (%): percentage inhibition of the increase in cholesterolemia compared with the control group” value of the first is higher: −23% for the first, −38% for the second.

First: CC(=O)OC[C@H]1O[C@H](Oc2ccc(C(=O)c3ccc(C#N)cc3)cc2)[C@H](OC(C)=O)[C@@H](OC(C)=O)[C@H]1OC(C)=O [Example 5, [4-(4-Cyanobenzoyl)phenyl]2,3,4,6-tetra-O-acetyl-α-D-galactopyranoside]
Second: CC(=O)O[C@@H]1[C@@H](Oc2ccc(C(=O)c3ccc(C#N)cc3)cc2)OC[C@@H](OC(C)=O)[C@H]1OC(C)=O [Example 7, [4-(4-Cyanobenzoyl)phenyl]2,3,4-tri-O-acetyl-α-D-arabinopyranoside]
The “Activity (%): percentage inhibition of the increase in cholesterolemia compared with the control group” value of the first is lower: −32% for the first, −25% for the second.

Compared with `N#Cc1ccc(C(=O)c2ccc(O[C@H]3O[C@H](CO)[C@H](O)[C@H](O)[C@H]3O)cc2)cc1` [Example 6, [4-(4-Cyanobenzoyl)phenyl]α-D-galactopyranoside], `N#Cc1ccc(C(=O)c2ccc(O[C@H]3OC[C@@H](O)[C@@H](O)[C@@H]3O)cc2)cc1` [Example 8, [4-(4-Cyanobenzoyl)phenyl]α-D-arabinopyranoside] is higher in “Activity (%): percentage inhibition of the increase in cholesterolemia compared with the control group” value: −35% for the first, −29% for the second.

First: N#Cc1ccc(C(=O)c2ccc(O[C@H]3OC[C@@H](O)[C@H](O)[C@@H]3O)cc2)cc1 [Example 10, [4-(4-Cyanobenzoyl)phenyl]α-D-lyxopyranoside]
Second: N#Cc1ccc(C(=O)c2ccc(O[C@H]3OC[C@@H](O)[C@@H](O)[C@H]3O)cc2)cc1 [Example 11, [4-(4-Cyanobenzoyl)phenyl]α-D-ribopyranoside]
The “Activity (%): percentage inhibition of the increase in cholesterolemia compared with the control group” value of the first is lower: −48% for the first, −26% for the second.
